Data reported in US4473579A, “Antiatherosclerotic tetrasubstituted ureas and thioureas” (American Cyanamid Company, priority 1982, dated 1984).

Columns and labels:
[1] = biological target: T1, fatty acyl CoA:cholesterol acyl transferase (ACAT) (Rattus norvegicus, UniProt O70536); test: In vitro inhibition of fatty acyl CoA:cholesterol acyl transferase (ACAT), rat adrenal supernatant; assay type: biochemical; settings: test compound final concentration 5.2 g./ml. (so in the source), pH 7.4, 37° C., 10 minutes
T1 construct: Rat adrenals were homogenized in 0.2M monobasic potassium phosphate buffer; from tissue; host or cells: rat adrenals, 1000 x g supernatant containing the microsomal fraction
T1 sequence (O70536 1-545): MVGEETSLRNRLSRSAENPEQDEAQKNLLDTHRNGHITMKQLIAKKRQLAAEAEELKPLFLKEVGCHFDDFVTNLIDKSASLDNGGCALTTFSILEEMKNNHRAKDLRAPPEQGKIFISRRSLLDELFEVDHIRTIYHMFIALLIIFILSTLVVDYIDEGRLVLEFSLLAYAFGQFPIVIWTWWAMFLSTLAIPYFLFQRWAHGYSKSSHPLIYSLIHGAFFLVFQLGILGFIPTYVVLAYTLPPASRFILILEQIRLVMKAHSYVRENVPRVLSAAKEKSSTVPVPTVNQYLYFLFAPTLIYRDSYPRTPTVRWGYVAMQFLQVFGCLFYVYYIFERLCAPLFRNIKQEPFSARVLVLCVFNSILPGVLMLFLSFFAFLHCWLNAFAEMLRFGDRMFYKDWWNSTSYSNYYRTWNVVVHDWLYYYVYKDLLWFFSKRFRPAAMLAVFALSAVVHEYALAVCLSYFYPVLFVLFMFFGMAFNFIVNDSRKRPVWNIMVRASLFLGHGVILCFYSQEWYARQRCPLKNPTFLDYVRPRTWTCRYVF
Procedure: (§1) The compounds of the present invention were assayed for two types of biological activity related to their potential use as antiatherosclerotic agents. Compounds were tested in vitro for their ability to inhibit the enzyme fatty acyl CoA:cholesterol acyl transferase (ACAT) and in vivo for serum hypolipidemic activity as measured by their ability to inhibit lipid absorption in rats. The compounds were tested for their ability to inhibit ACAT according to the following procedure:
Rat adrenals were homogenized in 0.2M monobasic potassium phosphate buffer, pH 7.4, and centrifuged at 1000 times gravity for 15 minutes at 5° C. The supernatant, containing the microsomal fraction, served as the source of the cholesterol-esterifying enzyme, fatty acyl CoA:cholesterol acyl transferase (ACAT). A mixture comprising 50 parts of adrenal supernatant, 10 parts of albumin (BSA) (50 mg./ml.), 3 parts of test compound (final concentration […].) and 500 parts of buffer was preincubated at 37° C. for 10 minutes. After treatment with 20 parts of oleoyl CoA(^14 C-[…]) the mixture was incubated at 37° C. for 10 minutes. A control mixture, omitting the test compound, was prepared and treated in the same manner. The lipids from the incubation mixture were extracted into an organic solvent and separated by thin-layer chromatography. The cholesteryl ester fraction was counted in a scintillation counter. This procedure is a modification of that described by Hashimoto, et al., Life Scie., 12 (Part II), 1-12 (1973).

cholesterol absorption = test: Inhibition of cholesterol absorption in cholesterol/cholic acid fed rats (serum or liver cholesterol lowering); assay type: in vivo, male Sprague-Dawley rats; settings: 0.03% of the diet; 1% cholesterol: 0.5% cholic acid diet for 2 weeks; lowering of serum or liver cholesterol relative to control rats
Procedure: as §1
Inhibition of cholesterol absorption was determined by feeding male Sprague-Dawley rats, weighing 150-170 g., a 1% cholesterol: 0.5% cholic acid diet for 2 weeks. The diet was contained compounds being tested at a dose of 0.03% of the diet. Control rats were fed the same diet without any compound. At the end of the test, the rats were sacrificed by decapitation. Blood is collected, centrifuged at 1.5 kg times gravity for 10 minutes at 4° C., and the serum is then analyzed for cholesterol and triglycerides enzymatically by the method of Trinder, P., Analyst, 77, 321 (1952) on a Centrifichem 400 Analyzer. […] The resulting neutral sterols are extracted with petroleum ether and extract analyzed for cholesterol. The effectiveness of the compound in inhibiting cholesterol absorption is measured by the lowering of either serum cholesterol or liver cholesterol relative the values for control rats.

Row | Structure (SMILES) | % Inhibition (ACAT) [1] [%] | Result (inhibition of cholesterol absorption) (cholesterol absorption)
1 | CCCCN(Cc1ccccc1)C(=O)N(c1cccc(Cl)c1)c1ccc2ccccc2c1 [1-Benzyl-1-(n-butyl)-3-(3-chlorophenyl)-3-(2-naphthyl)urea] | 82.7 | 
2 | CCCCN(Cc1ccccc1)C(=O)N(Cc1ccccc1)c1ccccc1 [1,3-Dibenzyl-1-(n-butyl)-3-phenylurea] | 81.8 | 
3 | CCCCN(Cc1ccccc1)C(=O)N(c1ccccc1)c1cccc(OC)c1 [1-Benzyl-1-(n-butyl)-3-(3-methoxyphenyl)-3-phenylurea] | 82.5 | Active
4 | CCCCN(Cc1ccccc1)C(=O)N(c1ccccc1)c1ccccc1 [1-Benzyl-1-(n-butyl)-3,3-diphenylurea] | 75.9 | 
5 | CCCCN(Cc1ccccc1)C(=O)N(c1ccccc1)c1cccc2ccccc12 [1-Benzyl-1-(n-butyl)-3-(1-naphthyl)-3-phenylurea] | 76.3 | 
6 | CCCCN(Cc1ccccc1)C(=O)N(c1ccccc1)c1cccc(C)c1 [1-Benzyl-1-(n-butyl)-3-(3-methylphenyl)-3-phenylurea] | 82.0 | 
7 | CCCCN(Cc1ccccc1)C(=O)N(c1ccc2ccccc2c1)c1ccc2ccccc2c1 [1-Benzyl-1-(n-butyl)-3,3-di(2-naphthyl)urea] | 93.2 | 
8 | CCCCN(Cc1ccccc1)C(=O)N(CCCC)Cc1ccccc1 [1,3-Dibenzyl-1,3-di-(n-butyl)urea] | 95.4 | 

The next lines start with results.

Row | % Inhibition (ACAT) [1] [%] | Structure (SMILES) | Result (inhibition of cholesterol absorption) (cholesterol absorption)
9 | 83.6 | CCCCN(Cc1ccccc1)C(=O)N(c1ccccc1)c1ccc2ccccc2c1 [1-Benzyl-1-(n-butyl)-3-(2-naphthyl)-3-phenylurea] | 
10 | 72.3 | CCCCN(Cc1ccccc1)C(=O)N(c1ccccc1)c1cccc(Cl)c1 [1-Benzyl-1-(n-butyl)-3-(3-chlorophenyl)-3-phenylurea] | 
11 | 77.8 | CCCCN(Cc1ccccc1)C(=O)N(c1ccccc1)c1ccc(OC(C)C)cc1 [1-Benzyl-1-(n-butyl)-3-(4-isopropoxyphenyl)-3-phenylurea] | 
